Earlier results as cited in US20050249757A1, “Pharmaceutical cream formulations” (Glenmark Pharmaceuticals Limited, priority 2004, published 2005).

Assays:
[1] = test system: rabbit skin; conditions: described as practically nonirritating
[2] = test system: human subjects; conditions: 50 human subjects, total of 15 applications; manufacturer's brochure
[3] = target: macrophilin-12 (FKBP-12) (Homo sapiens, UniProt P62942)
[4] = test system: human T cells; conditions: Th1-type and Th2-type cytokines

Chain of macrophilin-12 (FKBP-12) (P62942 whole entry): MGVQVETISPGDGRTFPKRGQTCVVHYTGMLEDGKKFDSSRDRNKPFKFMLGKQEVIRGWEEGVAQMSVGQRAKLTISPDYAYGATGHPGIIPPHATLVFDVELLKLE

Structure (SMILES) | PII (skin irritation) [1] | Dermal irritation and sensitization in repeated insult patch test [2] | Binding affinity to macrophilin-12 (FKBP-12) [3] | Concentration inhibiting Interleukin-2, interferon gamma, Interleukin-4 and Interleukin-10 cytokine synthesis [4]
CN1CCCC1=O [Pharmasolve, N-methyl-2-pyrrolidone] | 0.5 | neither a primary dermal irritant nor a sensitizer |  | 
CC[C@@H]1/C=C(\C)C[C@H](C)C[C@H](OC)[C@H]2O[C@@](O)(C(=O)C(=O)N3CCCC[C@H]3C(=O)O[C@H](/C(C)=C/[C@@H]3CC[C@H](Cl)[C@H](OC)C3)[C@H](C)[C@@H](O)CC1=O)[C@H](C)C[C@@H]2OC [pimecrolimus, (1R,9S,12S,13R,14S,17R,18E,21 S,23S,24R,25S,27R)-12-[(1E)-2-{(1R,3R,4S)-4-chloro-3-methoxycyclohexyl}-1-methylvinyl]-17-ethyl-1,14-dihydroxy-23,25-dimethoxy-13,19,21,27-tetramethyl-11,28-dioxa-4-aza-tricyclo[22.3.1.04,9]octacos-18-ene-2,3,10,16-tetraone] |  |  | high affinity | nanomolar concentrations
